One data set relates to Cynomolgus monkey. The following applies: in vivo, po, 10 mg/kg.
Data set [1] is described as follows: Dissociation constant, pKa of the compound. The class given is physicochemical.
The next data set in a line: in vivo. The following applies: rat, iv.
Data set [2] in a line: AUC in male dog at 250 mg/kg/day, iv. The class given is ADME, organism-based, Canis lupus familiaris. More on the design: route intravenous. The following applies: plasma.
Data set [3] is described as follows: AUC in female rat at 2000 mg/kg/day, iv. The class given is ADME, organism-based. More on the design: route intravenous. The conditions noted are these: plasma.
Data set [4] can be described thus: AUC in male rat at 2000 mg/kg/day, iv. The class given is ADME, organism-based. More on the design: route intravenous. The conditions noted are these: plasma.
Data set [5] is described as follows: AUC in female dog at 250 mg/kg/day, iv. The class given is ADME, organism-based, Canis lupus familiaris. Also noted: route intravenous. The conditions noted are these: plasma.

Consider 15 molecules from ChEMBL document CHEMBL1781974, “Novel 4,4-disubstituted piperidine-based C-C chemokine receptor-5 inhibitors with high potency against human immunodeficiency virus-1 and an improved human ether-a-go-go related gene (hERG) profile” (J Med Chem, 2011).

On to `Cc1nc2ccccc2n1C1CC2CCC(C1)N2CCC1(c2cccc(F)c2)CCN(C(=O)c2cc(NS(C)(=O)=O)c(F)cc2Cl)CC1` (centres undefined), for which the AUC/dose in the data set with Cynomolgus monkey was found to be 59 ng·h/mL.

The term pKa denotes the pH at which an ionisable group is half protonated. As to `Cc1nc2ccccc2n1[C@H]1C[C@H]2CC[C@@H](C1)N2CCC1(c2ccccc2)CCN(C(=O)C(C)(C)C)CC1`, the pKa in data set [1] was found to be 10.7.

Consider `Cc1nc2ccccc2n1C1CC2CCC(C1)N2CC(=O)C1(c2ccccc2)CCN(C(=O)C(C)(C)C)CC1` (centres undefined), for which, in data set [1], the pKa was found to be 6.37.

Broadly, the clearance is a measure of how efficiently the substance is removed, as volume per time. With `Cc1nc2ccccc2n1C1CC2CCC(C1)N2CCC1(c2cccc(F)c2)CCN(C(=O)C(C)(C)C)CC1` (centres undefined), in the data set “in vivo”, the clearance is 24 mL/min/kg.

The molecule `Cc1nc2ccccc2n1C1CC2CCC(C1)N2CCC1(c2cccc(F)c2)CCN(C(=O)C2(C(=O)O)CCC2)CC1` (centres undefined) returned a clearance in the data set “in vivo” of 136 mL/min/kg.

For the molecule `Cc1nc2ccccc2n1C1CC2CCC(C1)N2CCC1(c2ccccc2)CCN(C(=O)c2ccccc2C(=O)O)CC1` (centres undefined), in “in vivo”, the clearance is 114 mL/min/kg.

Molecule `Cc1nc2ccccc2n1C1CC2CCC(C1)N2CCC1(c2ccccc2)CCN(C(=O)c2cccc(C(=O)O)c2)CC1` (centres undefined) gave a clearance in “in vivo” of 62 mL/min/kg.

In the case of `Cc1nc2ccccc2n1C1CC2CCC(C1)N2CCC1(c2ccccc2)CCN(C(=O)C(C)(C)c2nnn[nH]2)CC1` (centres undefined), the clearance in “in vivo” stood at 156 mL/min/kg.

In the case of `Cc1nc2ccccc2n1C1CC2CCC(C1)N2CCC1(c2ccccc2)CCN(C(=O)C(C)(C)C(=O)NS(C)(=O)=O)CC1` (centres undefined), the clearance in “in vivo” is 53 mL/min/kg.

Molecule `Cc1nc2ccccc2n1C1CC2CCC(C1)N2CCC1(c2ccccc2)CCN(C(=O)c2ccc3c(c2)CC(=O)NS3(=O)=O)CC1` (centres undefined) displayed a clearance in the data set “in vivo” of 26 mL/min/kg.

Turning to `Cc1nc2ccccc2n1C1CC2CCC(C1)N2CCC1(c2ccccc2)CCN(C(=O)c2ccc(Cl)c(S(N)(=O)=O)c2)CC1` (centres undefined), the clearance in the data set “in vivo” turned out to be 31 mL/min/kg.

`Cc1nc2ccccc2n1C1CC2CCC(C1)N2CCC1(c2cccc(F)c2)CCN(C(=O)c2ccc(Cl)c(S(N)(=O)=O)c2)CC1` (centres undefined) returned a clearance in “in vivo” of 26.8 mL/min/kg.

For `Cc1cccc(C2(CCN3C4CCC3CC(n3c(C)nc5ccccc53)C4)CCN(C(=O)c3ccc(Cl)c(S(N)(=O)=O)c3)CC2)c1` (centres undefined), the clearance in “in vivo” was 28.3 mL/min/kg.

For orientation: AUC means concentration integrated over time. In turn, `CNS(=O)(=O)c1cc(C(=O)N2CCC(CCN3C4CCC3CC(n3c(C)nc5ccccc53)C4)(c3cccc(F)c3)CC2)c(Cl)cc1F` (centres undefined) showed an AUC/dose with Cynomolgus monkey of 38 ng·h/mL. Also, the AUC in data set [2] worked out at 17200 ng·h/mL; in data set [3], 160000 ng·h/mL; in data set [4] it was 77000 ng·h/mL; in data set [5] it was 34900 ng·h/mL.

In turn, `Cc1nc2ccccc2n1C1CC2CCC(C1)N2CCC1(c2cccc(F)c2)CCN(C(=O)c2c(F)ccc(NS(C)(=O)=O)c2F)CC1` (centres undefined) returned an AUC/dose in the data set on Cynomolgus monkey of 19.9 ng·h/mL.
